Key:
[1] = target: T1, PPT resistant mutant GS (lys 332) (pCGS3-LYS332) (Medicago sativa, UniProt P04078, R332K); assay: biochemical; parameters: species or system alfalfa; conditions: read-out: Relative GS Enzyme Activity
T1 construct: made in house; host or cells: E. coli FDB213 (glnA deletion), clarified lysate
Method: (§1) The cells were collected by centrifugation at 5,000 r.p.m. (5° C.) for 5 min, resuspended in 1.0 ml 10mM Tris-HCl, pH 7.5, 1 mM EDTA, 5 mM beta-mercaptoethanol, and lysed by sonication.

E. coli containing pCGS3 = assay: Replating on M9 with PPT, plasmid pCGS3; format: cell-based
Description: (§2) Tables I and II show the results obtained.

wild-type GS (pCGS3) = target: T2, wild-type GS (pCGS3) (Medicago sativa, UniProt P04078); assay: Inhibition of GS activity by PPT, lysate of E. coli FDB213 containing pCGS3; format: biochemical, alfalfa; conditions: read-out: Relative GS Enzyme Activity
T2 construct: made in house; host or cells: E. coli FDB213 (glnA deletion), clarified lysate
T2 sequence (P04078 1-356): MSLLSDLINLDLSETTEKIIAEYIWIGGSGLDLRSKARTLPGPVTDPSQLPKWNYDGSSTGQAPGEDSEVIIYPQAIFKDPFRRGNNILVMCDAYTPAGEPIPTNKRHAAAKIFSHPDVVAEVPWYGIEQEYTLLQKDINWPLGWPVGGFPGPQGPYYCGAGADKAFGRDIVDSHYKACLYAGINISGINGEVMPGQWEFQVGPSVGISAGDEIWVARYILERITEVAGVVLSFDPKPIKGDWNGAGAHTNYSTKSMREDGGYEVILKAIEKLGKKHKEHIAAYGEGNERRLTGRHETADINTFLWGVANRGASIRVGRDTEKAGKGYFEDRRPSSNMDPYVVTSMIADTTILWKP
Method: as §1

[2] = target: T3, PPT resistant mutant GS (ser 245) (pCGS3-SER245) (Medicago sativa, UniProt P04078, G245S); assay: Inhibition of GS activity by PPT, lysate of E. coli FDB213 containing pCGS3-Ser245; format: biochemical, alfalfa; conditions: read-out: Relative GS Enzyme Activity
T3 construct: made in house; host or cells: E. coli FDB213 (glnA deletion), clarified lysate
Method: as §1

E. coli transformants = assay: Fragment exchange: transformants selected for PPT resistance; format: cell-based
Description: as §2

[3] = target: T4, pea leaf glutamine synthetase (Pisum sativum, UniProt P08281); conditions: mixed competitive inhibitor; cited from earlier work
T4 sequence (P08281 50-430): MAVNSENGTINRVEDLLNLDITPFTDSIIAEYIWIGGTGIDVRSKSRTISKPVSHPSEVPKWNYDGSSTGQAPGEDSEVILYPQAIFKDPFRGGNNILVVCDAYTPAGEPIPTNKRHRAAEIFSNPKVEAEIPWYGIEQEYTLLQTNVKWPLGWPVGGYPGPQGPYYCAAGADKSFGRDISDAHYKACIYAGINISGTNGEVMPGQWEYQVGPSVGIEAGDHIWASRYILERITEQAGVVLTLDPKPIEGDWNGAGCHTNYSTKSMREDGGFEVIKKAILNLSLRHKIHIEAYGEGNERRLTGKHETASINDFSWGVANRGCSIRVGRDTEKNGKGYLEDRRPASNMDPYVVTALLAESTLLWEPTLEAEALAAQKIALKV

T1 sequence (P04078 whole entry R332K): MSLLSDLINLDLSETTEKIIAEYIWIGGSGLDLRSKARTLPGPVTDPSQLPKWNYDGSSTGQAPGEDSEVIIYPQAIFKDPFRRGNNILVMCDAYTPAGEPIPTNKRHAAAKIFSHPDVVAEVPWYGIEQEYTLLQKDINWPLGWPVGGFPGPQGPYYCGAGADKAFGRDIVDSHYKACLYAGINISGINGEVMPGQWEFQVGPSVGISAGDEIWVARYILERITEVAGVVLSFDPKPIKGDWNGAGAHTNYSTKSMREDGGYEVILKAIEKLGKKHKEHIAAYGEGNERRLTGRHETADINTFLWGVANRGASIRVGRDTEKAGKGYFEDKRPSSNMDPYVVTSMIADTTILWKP
T3 sequence (P04078 whole entry G245S): as the sequence (P04078 whole entry R332K) above, with G245S, K332R counted along it

CP(=O)(O)CC[C@H](N)C(=O)O [PPT, phosphinothricin]
remaining activity at 4 µM [1]: 103% | remaining activity at 25 µM [1]: 103% | remaining activity at 62.5 µM [1]: 103% | remaining activity at 125 µM [1]: 100% | remaining activity at 250 µM [1]: 98.5% | remaining activity at 2000 µM [1]: 78.2% | remaining activity at 20000 µM [1]: 23.8% | growth on replating (E. coli containing pCGS3; M9/6 mM PPT, from LB): 0 | growth on replating (E. coli containing pCGS3; M9/6 mM PPT, from M9): 0 | growth on replating (E. coli containing pCGS3; M9/12 mM PPT, from LB): 0 | growth on replating (E. coli containing pCGS3; M9/12 mM PPT, from M9): 0 | remaining activity at 4 µM (wild-type GS (pCGS3); 4 uM PPT): 102% | remaining activity at 25 µM (wild-type GS (pCGS3); 25 uM PPT): 95.7% | remaining activity at 62.5 µM (wild-type GS (pCGS3); 62.5 uM PPT): 84% | remaining activity at 125 µM (wild-type GS (pCGS3); 125 uM PPT): 68% | remaining activity at 250 µM (wild-type GS (pCGS3); 250 uM PPT): 42.7% | remaining activity at 2000 µM (wild-type GS (pCGS3); 2 mM PPT): 15% | remaining activity at 20000 µM (wild-type GS (pCGS3); 20 mM PPT): 4.3% | remaining activity at 4 µM [2]: 103% | remaining activity at 25 µM [2]: 103% | remaining activity at 62.5 µM [2]: 97.3% | remaining activity at 125 µM [2]: 91.4% | remaining activity at 250 µM [2]: 80.6% | remaining activity at 2000 µM [2]: 30.7% | remaining activity at 20000 µM [2]: 5.3%

CP(=O)(O)CC[C@H](N)C(=O)O [L-PPT, L-phosphinothricin]
NUMBER OF COLONIES M9 AMP + 3 mM L-PPT (E. coli transformants; 9: CCC pCGS3): 100 | NUMBER OF COLONIES M9 AMP + 3 mM L-PPT (E. coli transformants; 10: CCC pCGS3 PPT^r): > 1000 | NUMBER OF COLONIES M9 AMP + 3 mM L-PPT (E. coli transformants; ligation 2: insert PPT^r SalI-NcoI, vector SalI-NcoI): 8 | NUMBER OF COLONIES M9 AMP + 3 mM L-PPT (E. coli transformants; ligation 4: insert PPT^r NcoI-EcoRI, vector NcoI-EcoRI): 6 | NUMBER OF COLONIES M9 AMP + 3 mM L-PPT (E. coli transformants; ligation 6: insert PPT^r EcoRI-HindIII, vector EcoRI-HindIII): 300 | NUMBER OF COLONIES M9 AMP + 3 mM L-PPT (E. coli transformants; ligation 8: insert PPT^r HindIII-BamHI, vector HindIII-BamHI): 2

CS(=N)(=O)CCC(N)C(=O)O (centres unmarked) [MSO, methione sulfoximine]
Ki [3]: 160 µM
